Reference: patent US20230173014A1, “WINE LEES, DERIVATIVES THEREOF AND THEIR USES” (GRANDES VINOS Y VIÑEDOS SA, priority 2021, published 2023)

Key:
[1] = system: spontaneously hypertensive rats (SHR); assay: Antihypertensive activity after acute intragastric administration in hypertensive rats (tail-cuff); type: in vivo, rat; settings: for ΔSBP (mmHg) 2 h: mean ± ESM n=6; for ΔSBP (mmHg) 4 h / ΔSBP (mmHg) 6 h / ΔSBP (mmHg) 8 h / ΔSBP (mmHg) 24 h / ΔSBP (mmHg) 48 h: same doses; for maximum values of SBP reduction: printed as at 4 h post-administration
Description: For the study, male SHR rats 17-20 weeks old and weighing between 310 and 360 g, from Charles River Laboratories España S.A. were used. The rats remained at a stable ambient temperature of 23° C., and with light-dark cycles of 12 hours, eating food and water ad-libitum.
The BP measurement in these animals was carried out with a modification of the tail-cuff technique, following the methodology and equipment described by Mas-Capdevila et al. 2018. The measurement of the SBP was performed prior to the administration of the treatments and after their administration at 2, 4, 6, 8, 24 and 48 h. The treatments consisted of the acute administration of a dose of 5 mL/kg bw of the different wine lees (supernatant collected after centrifugation at 2,950×g, 15 min, 4° C.). The effect of water administration (1.5 mL, negative control) was also evaluated in order to know the circadian variation of SBP in rats and of captopril (50 mg/kg bw dissolved in 1.5 mL of water), antihypertensive drug used as a positive control. The administration of all the treatments was carried out by means of an intragastric tube at between 9 and 10 a.m.
The SBP and DBP results are represented as a decrease in SBP or DBP at different times with respect to the SBP or DBP observed at 0 h (without treatment) for each animal (FIG. 1). Each data represents the mean±the ESM (n=6). Furthermore, the data of the different groups were compared in a 2-way analysis of variance (ANOVA) using the Tukey test at each post-administration time with the SPSS statistical program (IBM SPSS Statistics software version 20.0) and the difference was considered significant for p values <0.05.
In the present example, the effect of dry UVC wine lees, without alcohol, on its antihypertensive activity is described by means of its acute administration to SHR rats. The study was carried out following the method and conditions described in Example 3. The treatments that were evaluated consisted of the acute administration of water (1.5 mL), captopril (50 mg/kg bw), UVC wine lees (5 mL/kg bw), or the same lyophilized lees (125 mg/kg bw). The tested dose of lyophilized lees (125 mg/kg bw) corresponded to the same amount of dry product that is in 5 mL/kg bw of the wine lees. Solid state treatments were diluted in water for administration to animals. […] In fact, it increased its effectiveness from the two hours after its administration, producing a drop in systolic blood pressure of −33 mmHg compared to −12 mmHg, a drop produced by those without drying. Furthermore, its effect was more prolonged in time. Specifically, lyophilized UVC wine lees produced a drop in SBP of −41 mmHg at 24 h post-administration.
The antihypertensive effect of the “hydrolysate 3” was studied for 72 h (0, 2, 4, 6, 8, 24, 48, and 72 h), after its administration by intragastric tube. As in Example 3, negative and positive BP controls were performed, obtained after administration of water and captopril (50 mg/kg bw) respectively, in a volume of 1.5 mL per animal. The antihypertensive activity of the wine lees used to prepare “hydrolysate 3” and “hydrolysate 3” was evaluated, both at a dose of 5 mL/kg bw. The lees used in these tests were from a different batch than the one used in Example 3.
For the evaluation of the possible acute antihypertensive effect of the peptides, a study in SHR rats was carried out, provided by Charles River Laboratories Espana S.A. The rats' age, stalling conditions and BP measurement technique were the same as those described in Example 3. The initial SBP of the animals was 204±2 mmHg. A negative control (water) and a positive control (captopril) were also included during the study. The peptides were administered intragastrically at a single dose of 10 mg/kg bw and captopril at 50 mg/kg bw, diluted in water. BP measurements were pooled and the mean±ESM was obtained (n=6 per group). The same analysis of variance was used as in Example 3.

[2] = biological target: Angiotensin Converting Enzyme (ACE) (Homo sapiens, UniProt P12821); assay: ACEI activity measurement (in vitro ACE inhibition); type: biochemical; settings: synthetic peptides at 0.83 mg/mL
Description: Once the wine lees were collected, they were centrifuged at 2,950×g, 15 min, 4° C. and the supernatant was collected. The ACEI activity of the supernatants was determined as described in Example 2.
The ACEI activity measurement of the wine lees and their hydrolysates was performed according to the method described by Mas-Capdevila et al. 2018 (“Dose-related antihypertensive properties and the corresponding mechanisms of a chicken foot hydrolysate in hypertensive rats”. Nutrients. 2018, 10 (9), 1295), after centrifugation at 2,950×g, 15 min, 4° C. and a dilution of 1/256.
The percentage of inhibition (% Inhibition) was calculated applying the following formula: […]
The IC50 was calculated by determining the ACEI percentage of different concentrations of the sample. […] Subsequently, the necessary amount of the sample was calculated to inhibit 50% of the enzyme by extrapolating in the previously obtained straight line. […]

[3] = Example 10, peptides 10 mg/kg bw, captopril 50 mg/kg bw, intragastric

Chain of Angiotensin Converting Enzyme (ACE) (P12821 30-1306, species assumed): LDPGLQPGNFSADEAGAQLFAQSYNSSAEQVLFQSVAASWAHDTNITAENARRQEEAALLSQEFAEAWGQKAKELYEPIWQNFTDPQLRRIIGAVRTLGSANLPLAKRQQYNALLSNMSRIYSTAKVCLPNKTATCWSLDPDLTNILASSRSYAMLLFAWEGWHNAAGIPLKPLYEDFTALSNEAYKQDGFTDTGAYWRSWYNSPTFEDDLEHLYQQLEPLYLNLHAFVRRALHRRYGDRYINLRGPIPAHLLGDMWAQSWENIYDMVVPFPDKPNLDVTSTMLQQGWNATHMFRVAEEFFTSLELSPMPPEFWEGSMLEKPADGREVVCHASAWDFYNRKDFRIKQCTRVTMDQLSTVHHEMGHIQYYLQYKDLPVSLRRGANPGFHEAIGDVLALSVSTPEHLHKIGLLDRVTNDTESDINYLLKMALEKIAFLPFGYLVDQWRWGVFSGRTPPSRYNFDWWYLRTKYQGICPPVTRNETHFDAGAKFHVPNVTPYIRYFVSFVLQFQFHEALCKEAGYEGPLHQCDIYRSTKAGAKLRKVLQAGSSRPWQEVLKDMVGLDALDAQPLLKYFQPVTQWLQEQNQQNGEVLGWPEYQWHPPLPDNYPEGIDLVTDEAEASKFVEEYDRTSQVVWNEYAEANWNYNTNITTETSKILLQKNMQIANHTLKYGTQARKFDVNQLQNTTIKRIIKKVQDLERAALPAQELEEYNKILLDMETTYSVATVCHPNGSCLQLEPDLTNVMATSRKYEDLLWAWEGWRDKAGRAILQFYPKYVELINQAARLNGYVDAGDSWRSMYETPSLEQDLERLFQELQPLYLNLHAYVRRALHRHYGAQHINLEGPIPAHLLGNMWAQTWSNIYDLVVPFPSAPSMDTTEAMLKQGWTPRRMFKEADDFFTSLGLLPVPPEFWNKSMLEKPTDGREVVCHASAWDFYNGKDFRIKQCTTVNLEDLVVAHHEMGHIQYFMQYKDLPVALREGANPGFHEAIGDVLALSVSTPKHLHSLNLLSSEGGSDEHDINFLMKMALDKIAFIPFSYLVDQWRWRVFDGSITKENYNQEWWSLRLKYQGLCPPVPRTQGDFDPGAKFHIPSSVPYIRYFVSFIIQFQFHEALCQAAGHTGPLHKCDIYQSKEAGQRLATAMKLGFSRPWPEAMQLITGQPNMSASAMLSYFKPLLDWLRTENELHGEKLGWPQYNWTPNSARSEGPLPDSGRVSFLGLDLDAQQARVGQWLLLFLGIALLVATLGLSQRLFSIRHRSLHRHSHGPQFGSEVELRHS

| ACEI activity (%) [2] [%] | Compound | ΔSBP (mmHg) 2 h [1, 3] [mmHg] | ΔSBP (mmHg) 4 h ([1]; Example 10) [mmHg] | ΔSBP (mmHg) 6 h ([1]; Example 10) [mmHg] | ΔSBP (mmHg) 8 h ([1]; Example 10) [mmHg] | ΔSBP (mmHg) 24 h ([1]; Example 10) [mmHg] | ΔSBP (mmHg) 48 h ([1]; Example 10) [mmHg] | also measured |
| --- | --- | --- | --- | --- | --- | --- | --- | --- |
| – | C[C@H](CS)C(=O)N1CCC[C@H]1C(=O)O [Captopril, captopril, reference compound] | −19 ± 6 | −34 ± 4 | −44 ± 4 | −45 ± 3 | −22 ± 6 | −7 ± 4 | maximum decrease in SBP ([1]; Example 3, FIG. 1A, at 6 h post-administration, wine lees 5 mL/kg bw, captopril 50 mg/kg bw): −43.2±3.9 mmHg; maximum decrease in DBP ([1]; Example 3, FIG. 1B, at 6 h post-administration, wine lees 5 mL/kg bw, captopril 50 mg/kg bw): −47.2±1.5 mmHg; ΔSBP (mmHg) 2 h ([1]; Example 4, captopril 50 mg/kg bw, UVC wine lees 5 mL/kg bw, lyophilized lees 125 mg/kg bw): −24 ± 3 mmHg; ΔSBP (mmHg) 4 h ([1]; Example 4): −26 ± 2 mmHg; ΔSBP (mmHg) 6 h ([1]; Example 4): −43 ± 4 mmHg; ΔSBP (mmHg) 8 h ([1]; Example 4): −16 ± 3 mmHg; ΔSBP (mmHg) 24 h ([1]; Example 4): −1 ± 2 mmHg; ΔSBP (mmHg) 48 h ([1]; Example 4): −2 ± 3 mmHg; maximum decrease in SBP at 6 h ([1]; Example 8, FIG. 4, captopril 50 mg/kg bw): −43 mm Hg; decrease in SBP at 48 h after administration ([1]; Example 8, hydrolysate 5 mL/kg bw, captopril 50 mg/kg bw): no longer exerted any significant effect; ΔSBP (mmHg) 2 h ([1]; Example 10, peptides 10 mg/kg bw, captopril 50 mg/kg bw, intragastric, listed as captopril): −19 mmHg; ΔSBP (mmHg) 24 h ([1]; Example 10, listed as captopril): −22 mmHg; decrease in SBP ([1]; FIG. 2A, 6 h after administration, captopril 50 mg/kg bw): −43 mmHg |
| 27.0 ± 5.6 | FKTTDQQTRTTVA (Synthesized peptide P1) [peptide identified in hydrolysate 3, chemically synthesized] | −12 ± 2 | −15 ± 4 | −23 ± 5 | −24 ± 3 | −13 ± 3 | −1 ± 3 | maximum values of SBP reduction ([1]; Example 10, 10 mg/kg bw): −23 mmHg |
| – | LDSPSEGRAPG (Synthesized peptide P5) [peptide identified in hydrolysate 3, chemically synthesized] | −10 ± 4 | −12 ± 5 | −18 ± 3 | −18 ± 3 | −3 ± 4 | −1 ± 4 | – |
| 2.4 ± 0.9 | LDSPSEGRAPGAD (Synthesized peptide P6) [peptide identified in hydrolysate 3, chemically synthesized] | −11 ± 2 | −16 ± 4 | −24 ± 3 | −22 ± 4 | −2 ± 4 | −5 ± 4 | maximum values of SBP reduction ([1]; Example 10, 10 mg/kg bw): −24 mmHg |
| 48.5 ± 9.1 | NPKLVTIV (Synthesized peptide P2) [peptide identified in hydrolysate 3, chemically synthesized] | −9 ± 6 | −13 ± 4 | −19 ± 5 | −14 ± 3 | −5 ± 4 | −5 ± 3 | – |
| – | PAGELHP (Synthesized peptide P4) [peptide identified in hydrolysate 3, chemically synthesized] | −7 ± 3 | −5 ± 4 | −6 ± 5 | −5 ± 4 | −3 ± 7 | −2 ± 3 | antihypertensive effect in SHR ([1]; Example 10, 10 mg/kg bw): did not show an antihypertensive effect |
| – | TVTNPARIA (Synthesized peptide P3) [peptide identified in hydrolysate 3, chemically synthesized] | −2 ± 4 | −14 ± 4 | −16 ± 2 | −14 ± 4 | −5 ± 3 | −2 ± 3 | – |
